Reference: patent publication US8633242B2, “Benzylidene indanones and processes for preparation and use thereof” (Council of Scientific and Industrial Research, priority 2011, dated 2014)
“Also recorded” adds a separate entry of the source. Where two headings read alike, the source gives them in different places.

What was measured:
Swiss albino mice = details: mouse, in vivo; for ALKP / Body weight / Haemoglobin / SGOT / SGPT / Serum creatinine / Serum total cholesterol / Serum triglycerides: po
Method: In view of potent anti-cancer activity of compound 8 in in-vitro model, acute oral toxicity of the same was carried out in Swiss albino mice for its further development into drug product. For the study, 30 mice (15 male and 15 female) were taken and divided into five groups comprising 3 male and 3 female mice in each group weighing between 20-25 g. The animals were maintained at 22±5° C. with humidity control and also on an automatic dark and light cycle of 12 hours. The animals were fed with the standard rat feed and provided ad libitum drinking water. Mice of group 1 were kept as control and animals of groups […] were kept as experimental. The animals were acclimatized for 7 days in the experimental environment prior to the actual experimentation. The test compound was suspended by ultrasonication in cremophore EL (20% in distilled water) using traces of ethanol as a co-solvent and was given at 5, 50, 300 and 1000 mg/kg body weight to animals of groups 2, 3, 4 and 5 respectively. Control animals received only vehicle.
The animals were checked for mortality and any signs of ill health at hourly interval on the day of administration of drug and there after a daily general case side clinical examination was carried out including changes in skin, mucous membrane, eyes, occurrence of secretion and excretion and also responses like lachrymation, pilo-erection respiratory patterns etc. Also changes in gait. posture and response to handling were also recorded (Allan at al., 2007). In addition to observational study, body weights were recorded and blood and serum samples were collected from all the animals on 7th day after experiment and were analysed for total RBC, WBC, differential leucoyte count haemoglobin percentage and biochemical parameters like total cholesterol, triglycerides, creatinine, SGPT and SGOT activity. The animals were then sacrificed and were necropsed for any gross pathological changes. Weights of vital organs like liver, heart, kidney etc. were recorded (Chanda et al., 2009).

HCT (Colon) = test: Sulphorhodamine B cytotoxicity assay, HCT; type: cell-based, human
Method: (§1) The benzylidene analogues were evaluated by Sulphorhodamine B Assay as per reported method [Skehan et al., J. Natl. Cancer Inst. 1990, 82, 1107]. The human cancer cell lines procured from National Cancer institute, Frederick, U.S.A. were used in present study. Cells were grown in tissue culture flasks in complete growth medium (RPMI-1640 medium with 2 mM glutamine, pH 7.4 supplemented with 10% fetal bovine serum, 100 μg/ml streptomycin and 100 units/ml penicillin) in a carbon dioxide incubator (37° C., 5% CO2, 90% RH). The cells at subconfluent stage were harvested from the flask by treatment with trypsin (0.05% in PBS (pH 7.4) containing 0.02% EDTA). Cells with viability of more than 98%, as determined by trypan blue exclusion, were used for determination of cytotoxicity. The cell suspension required concentration of cells was prepared in complete growth medium. Stock solution of 2×10^−2 M of compounds were prepared in DMSO and further dilution was carried out complete growth medium containing 50 μg/ml of gentamycin to obtained working test solution of required concentration. In vitro cytotoxicity against various human cancer cell lines was determined using 96-well cell culture plates. The 100 μl of cell suspension was added to each well of the 96-well cell culture plates. The cells were allowed to grow in CO2 incubator (37° C., 5% CO2, 90% RH) for 24 hours. The test materials in complete growth medium (100 μl) were added after 24 hours incubation to the wells containing cell suspension. The plates were further incubated for 48 hours (37° C. in an atmosphere of 5% CO2 and 90% relative humidity) in a carbon dioxide incubator after addition of test material and then the cell growth was stopped by gently layering trichloroacetic acid (50% TCA, 50 μl) on top of the medium in all the wells. The plates were incubated at 4° C. for one hour to fix the cells attached to the bottom of the wells. The liquid of all the wells was gently pipetted out and discarded. The plates were washed five times with distilled water to remove TCA, growth medium low molecular weight metabolites, serum proteins etc. and air-dried. Cell growth was measured by staining with sulforhodamine B dye. The adsorbed dye was dissolved in Tris-HCl Buffer (100 μl/well, 0.01M, pH 10.4) and plates were gently stirred for 10 minutes on a mechanical stirrer. The optical density (OD) was recorded on ELISA reader at 540 nm. 5-Fluorouracil, Paclitaxel (Taxol), Mitomycin-c and Adriamycin were used as positive controls.

[1] = tested on: various human cancer cell lines; test: Cytotoxicity against various human cancer cell lines (summary statements); type: cell-based
Method: The benzylidene analogues were evaluated by Sulphorhodamine B Assay as per reported method [Skehan et al., J. Natl. Cancer Inst. 1990, 82, 1107]. The human cancer cell lines procured from National Cancer institute, Frederick, U.S.A. were used in present study. Cells were grown in tissue culture flasks in complete growth medium (RPMI-1640 medium with 2 mM glutamine, pH 7.4 supplemented with 10% fetal bovine serum, 100 μg/ml streptomycin and 100 units/ml penicillin) in a carbon dioxide incubator (37° C., 5% CO2, 90% RH). The cells at subconfluent stage were harvested from the flask by treatment with trypsin (0.05% in PBS (pH 7.4) containing 0.02% EDTA). Cells with viability of more than 98%, as determined by trypan blue exclusion, were used for determination of cytotoxicity. The cell suspension required concentration of cells was prepared in complete growth medium. Stock solution of 2×10^−2 M of compounds were prepared in DMSO and further dilution was carried out complete growth medium containing 50 μg/ml of gentamycin to obtained working test solution of required concentration. In vitro cytotoxicity against various human cancer cell lines was determined using 96-well cell culture plates. […] Cell growth was measured by staining with sulforhodamine B dye. […] The optical density (OD) was recorded on ELISA reader at 540 nm. […]

HeLa (Cervix) = test: Sulphorhodamine B cytotoxicity assay, HeLa; type: cell-based, human; details: Homo sapiens, HeLa; SRB assay, 48 hours incubation; read-out: Human cancer cell lines IC50, HeLa (Cervix)
Method: as §1

tubulin protein = test: In-vitro tubulin polymerisation inhibition assay; type: biochemical
Method: The tubulin polymerization experiment was performed using ‘assay kit’ (Cytoskeleton USA) following manufacturer's protocol based on the procedure described by of Shelanski et al. (1973) and Lee et al. (1977). Briefly, tubulin protein (3 mg/mL) in tubulin polymerization buffer (80 mM PIPES, pH 6.9, 2 mM MgCl2, 0.5 mM EGTA, 1 mM GTP and 15% glycerol) was placed in pre-warmed 96-well microtiter plates at 37° C. in the presence of test compounds with variable concentrations. All samples were mixed well and polymerization was monitored kinetically at 340 nm every min for 1 h using a Spectramax plate reader. Podophyllotoxin and etoposide were used as positive controls and DMSO as negative control. The IC50 value was determined from dose-dependent analysis and is defined as the concentration that inhibits the rate of polymerization by 50%.
Podophyllotoxin and etoposide, standard tubulin polymerisation inhibitors were used as positive controls.

COc1cc(C2/C(=C/c3ccc4c(c3)OCO4)C(=O)c3cc(OC)c(OC)c(OC)c32)cc(OC)c1OC (racemic) [Compound 8, 2-(3,4-Methylenedioxybenzylidine), 3-(3,4,5-trimethoxyphenyl), 4,5,6-trimethoxyindanone]
observational changes, morbidity and mortality (Swiss albino mice; 300 mg/kg): No observational changes, morbidity and mortality
ALKP (Swiss albino mice; 5 mg/kg): 82.51 ± 3.04 U/L
Body weight (Swiss albino mice; 5 mg/kg): 30.38 ± 0.77 g
Haemoglobin (Swiss albino mice; 5 mg/kg): 11.31 ± 1.14 g/dL
SGOT (Swiss albino mice; 5 mg/kg): 18.74 ± 1.54 U/L
SGPT (Swiss albino mice; 5 mg/kg): 6.90 ± 0.17 U/L
Serum creatinine (Swiss albino mice; 5 mg/kg): 0.53 ± 0.04 mg/dL
Serum total cholesterol (Swiss albino mice; 5 mg/kg): 109.42 ± 5.46 mg/dL
Serum triglycerides (Swiss albino mice; 5 mg/kg): 112.69 ± 3.75 mg/dL
ALKP (Swiss albino mice; 50 mg/kg): 94.24 ± 8.83 U/L
Body weight (Swiss albino mice; 50 mg/kg): 28.37 ± 1.42 g
Haemoglobin (Swiss albino mice; 50 mg/kg): 12.93 ± 0.98 g/dL
SGOT (Swiss albino mice; 50 mg/kg): 20.66 ± 1.15 U/L
SGPT (Swiss albino mice; 50 mg/kg): 9.77 ± 0.77 U/L
Serum creatinine (Swiss albino mice; 50 mg/kg): 0.45 ± 0.05 mg/dL
Serum total cholesterol (Swiss albino mice; 50 mg/kg): 125.69 ± 5.90 mg/dL
Serum triglycerides (Swiss albino mice; 50 mg/kg): 90.62 ± 8.41 mg/dL
ALKP (Swiss albino mice; 300 mg/kg): 90.11 ± 5.42 U/L
Body weight (Swiss albino mice; 300 mg/kg): 29.35 ± 1.63 g
Haemoglobin (Swiss albino mice; 300 mg/kg): 11.46 ± 0.76 g/dL
SGOT (Swiss albino mice; 300 mg/kg): 26.55 ± 3.23 U/L
SGPT (Swiss albino mice; 300 mg/kg): 9.16 ± 1.14 U/L
Serum creatinine (Swiss albino mice; 300 mg/kg): 0.56 ± 0.07 mg/dL
Serum total cholesterol (Swiss albino mice; 300 mg/kg): 117.57 ± 3.45 mg/dL
Serum triglycerides (Swiss albino mice; 300 mg/kg): 113.15 ± 3.65 mg/dL
Body weight (Swiss albino mice; 1000 mg/kg): 30.69 ± 0.83 g
Haemoglobin (Swiss albino mice; 1000 mg/kg): 12.21 ± 1.46 g/dL
SGOT (Swiss albino mice; 1000 mg/kg): 19.38 ± 3.49 U/L
Serum creatinine (Swiss albino mice; 1000 mg/kg): 0.42 ± 0.09 mg/dL
Serum total cholesterol (Swiss albino mice; 1000 mg/kg): 118.60 ± 6.07 mg/dL
Serum triglycerides (Swiss albino mice; 1000 mg/kg): 97.44 ± 6.96 mg/dL
activity against HCT (Colon) cancer cell line, in words (HCT (Colon)): better activity
IC50 (HCT (Colon); Homo sapiens, SRB assay, 48 hours incubation, read-out: Human cancer cell lines IC50, HCT (Colon)): 100 nM
anticancer activity against human cancer cell lines, in words [1]: exhibits anticancer activity
IC50 (HeLa (Cervix)): 23000 nM
inhibition of tubulin polymerisation, in words (tubulin protein): tubulin polymerisation inhibition; also recorded: strong inhibition
IC50 (tubulin protein; read-out: Tubulin polymerisation inhibition IC50, tubulin 3 mg/mL, 37° C., 340 nm, 1 h): 630 nM
